The text below walks through data of patent US20130273207A1, “Calcium Fortifying Composition for Strength, a Hydration Supplement, and Process for Preparing the Same” (priority 2010, published 2013).

Like-named read-outs stand apart in the source and are kept apart here.

The conditions of data set [1]: cited from earlier work.
A short description of data set [2]: Calcium available to human body (bioavailability) from Ca products. The conditions noted are these: consumption 1000 mg of product. The text has this:
Bioavailability of Calcium Lactate Gluconate: the effectiveness of the nutrient depends on its bioavailability, which means how well the human body absorbs and utilizes it for various functions occurring in the body. On an average, about 10 to 30% of the total calcium is only get absorbed from a mixed diet by healthy adults. Many different factors influence this level of availability, one being the type of salt providing calcium. […] Calcium Lactate Gluconate is primarily used in applications where solubility and clarity are important.

The conditions of data set [3]: cited from earlier work; for % bioavailability of Ca out of inorganic Ca: consumption 1000 mg of product; for Bioavailability (in words): human and animal studies.
A short description of a further data set: Solubility in water. The following applies: RDA of calcium equals 800 mg per day in the EU.
For the next data set, the system named is women. The conditions noted are these: over 4,000 women, calcium in drinking water; cited from earlier work.
The conditions of data set [4]: cited from earlier work. The source holds these as a separate data set.

As to `CC(O)C(=O)[O-].O=C([O-])[C@H](O)[C@@H](O)[C@H](O)[C@H](O)CO.[Ca+2]` [CLG, Calcium Lactate Gluconate], the “Solubility (in words)” value in data set [1] was “High solubility (the most soluble forms of organic Ca)”. For the same compound, the “Solubility [g Ca/L water]” value in data set [1] (water) is reported as 52 g Ca/L water. The “Solubility [g/L water]” value in data set [1] (water) is listed as 400 g/L water; in data set [1] (water, listed as Calcium Lactate Gluconate), “approx. 400 g/L water”. In addition, the “Total Ca absorbed by the body (mg)” value in data set [2] was “Max”. The “% bioavailability of Ca out of inorganic Ca” value (shortened to “% bioavailability”) in data set [3] was “High*”. In addition, the “Bioavailability (in words)” value is “highly bioavailable” in data set [3] and “Excellent bioavailability. (maintains that solubility during transit through the small intestine, during which time it is exposed to passive diffusion sites, therefore maximizing Ca absorption)” in data set [3] (listed as Ca lactate gluconate). Moreover, the “% of RDA in 100 ml” value in “Solubility in water” is 650%.
With `O=C([O-])[O-].[Ca+2]` [Ca Carbonate, calcium carbonate], the “Total Ca absorbed by the body” value in data set [2] was found to be 40 mg. The “% bioavailability” value in data set [3] is recorded as 10%.
In the case of `O=C([O-])CC(O)(CC(=O)[O-])C(=O)[O-].O=C([O-])CC(O)(CC(=O)[O-])C(=O)[O-].[Ca+2].[Ca+2].[Ca+2]` [Ca Citrate], in data set [3], the “% bioavailability” value is 50%.
With `[Ca+2]` [Calcium], the “total calcium absorbed from a mixed diet” value in data set [3] (healthy adults, on an average) is 10 to 30%. For the same compound, the bone density entry with women was “associated with an increase in their bone density”. Also, in data set [4] (60 mg per liter), the “Validation: risk of toxicity (in words)” value is “No risk of toxicity”. Moreover, the “Safe Intake level” value in data set [4] (Source: Expert group of vitamins & Minerals, UK - 2003) is reported as 1500 mg. In addition, the “doses that might induce some gastrointestinal side effects in some individuals” value in data set [4] (human trials) is “indicate that higher doses (of 2500 mg”. Moreover, in data set [4] (in vivo), the “supplemental Ca with no adverse effect” value is reported as 1500 mg per day.
Regarding `[Cu]` [Copper], in data set [4] (in vivo), the “Safe Intake level” value is recorded as 10 mg and the safe upper limit entry is listed as “limit of 10 mg/day in a 60 kg adult”.
For `[Ca+2]` [Ionic Ca (Ca^++), Ionic Ca], the “% bioavailability” value in data set [3] is 100%.
Regarding `CC(O)C(=O)[O-].CC(O)C(=O)[O-].[Ca+2]` (stereo not shown) [calcium lactate], in data set [2], the “Total Ca absorbed by the body” value came out at 122 mg. Moreover, the “% bioavailability” value in data set [3] is on record as 33%.
For calcium phosphate [Ca Phosphate], in data set [2], the “Total Ca absorbed by the body” value was found to be 39 mg. The “% bioavailability” value in data set [3] was 10%.
